Ends that are not written are not given here.
Assays:
[1] = test system: human erythrocytes in 50% citrate blood with S. aureus or P. aeruginosa; conditions: peptide 120 µM (highest dose), 1 hour 37°C, in words
Method: For analysis of peptide-induced permeabilization of human erythroytes, EDTA-, or citrate-blood was drawn from healthy volunteers, [51], centrifuged at 800 g for 10 min, and plasma and buffy coat were removed. For experiments using EDTA-blood, [51] erythrocytes were washed three times and resuspended to 5% in PBS, pH 7.4. For experiments in 50% blood, citrate-blood was diluted (1∶1) with PBS. The cells were then incubated with end-over-end rotation for 1 h at 37°C in the presence of peptides (60 µM). 2% Triton X-100 (Sigma-Aldrich, St. Louis, USA) served as positive control. The samples were then centrifuged at 800 g for 10 min. The absorbance of hemoglobin release was measured at 540 nm and is expressed as % of TritonX-100 induced hemolysis. In the experiments with blood infected by bacteria, citrate-blood was diluted (1∶1) with PBS. The cells were then incubated with end-over-end rotation for 1 h at 37°C in the presence of peptides (60 and 120 µM) and S. aureus (2×10^8 cfu/ml) or P. aeruginosa (2×10^8 cfu/ml) bacteria. For evaluation of hemolysis, samples were then processed as above. Results given represent mean values from triplicate measurements.

[2] = biological target: T1, S. aureus aureolysin (Staphylococcus aureus, UniProt P81177); test: Protease sensitivity assay (SDS-PAGE); format: in vitro ADME; conditions: 1 µg peptide, 0.1 µg enzyme, 30 µl, 37°C, 3 hours (legend: 4 h), SDS-PAGE Coomassie; in words
T1 construct: purchased BioCol GmbH (Potsdam, Germany)
T1 sequence (P81177 209-509): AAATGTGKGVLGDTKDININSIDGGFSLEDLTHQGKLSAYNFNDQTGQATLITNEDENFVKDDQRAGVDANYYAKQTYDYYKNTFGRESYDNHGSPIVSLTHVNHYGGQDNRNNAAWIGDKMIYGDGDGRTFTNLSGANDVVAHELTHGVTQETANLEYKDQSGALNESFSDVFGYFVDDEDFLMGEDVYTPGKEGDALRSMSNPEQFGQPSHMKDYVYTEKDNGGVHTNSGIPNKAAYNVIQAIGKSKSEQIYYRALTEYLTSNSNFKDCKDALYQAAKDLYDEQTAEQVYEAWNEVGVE
Method: (§1) For evaluation of sensitivity to bacterial and endogenous proteases, peptides (1 µg) were incubated at 37°C with S. aureus aureolysin (0.1 µg, 25000 units/mg), S. aureus V8 proteinase (0.1 µg, 2000 mU), both from BioCol GmbH (Potsdam, Germany), human neutrophil elastase (0.4 µg, 29 units/mg; Calbiochem (La Jolla, USA)) or P. aeruginosa elastase (0.1 µg, 261 units/mg) (Calbiochem, La Jolla, USA) in a total volume of 30 µl for 3 hours. The materials were analyzed on 16.5% precast sodium dodecyl sulfate polyacrylamide (SDS-PAGE) Tris-Tricine gels (BioRad, Hercules, USA) and analyzed after staining with Coomassie Blue R-250 (Merck, Darmstadt, Germany).

[3] = biological target: T2, S. aureus V8 proteinase (Staphylococcus aureus, UniProt P0C1U8); test: Protease sensitivity assay (SDS-PAGE); format: in vitro ADME; conditions: 1 µg peptide, 0.1 µg enzyme, 30 µl, 37°C, 3 hours (legend: 4 h), SDS-PAGE Coomassie; in words
T2 construct: purchased BioCol GmbH (Potsdam, Germany)
T2 sequence (P0C1U8 69-336): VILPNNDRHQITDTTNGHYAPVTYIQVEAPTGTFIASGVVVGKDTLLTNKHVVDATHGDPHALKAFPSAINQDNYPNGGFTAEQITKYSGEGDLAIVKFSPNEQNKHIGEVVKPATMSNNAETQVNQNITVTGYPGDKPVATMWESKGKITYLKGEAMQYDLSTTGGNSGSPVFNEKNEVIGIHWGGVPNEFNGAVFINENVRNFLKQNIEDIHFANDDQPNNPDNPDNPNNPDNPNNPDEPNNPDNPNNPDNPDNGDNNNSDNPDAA
Method: as §1

[4] = biological target: T3, human neutrophil elastase (Homo sapiens, UniProt P08246); test: Protease sensitivity assay (SDS-PAGE); format: in vitro ADME; conditions: 1 µg peptide, 0.4 µg enzyme, 30 µl, 37°C, 3 hours (legend: 4 h), SDS-PAGE Coomassie; in words
T3 construct: purchased Calbiochem (La Jolla, USA)
T3 sequence (P08246 30-267): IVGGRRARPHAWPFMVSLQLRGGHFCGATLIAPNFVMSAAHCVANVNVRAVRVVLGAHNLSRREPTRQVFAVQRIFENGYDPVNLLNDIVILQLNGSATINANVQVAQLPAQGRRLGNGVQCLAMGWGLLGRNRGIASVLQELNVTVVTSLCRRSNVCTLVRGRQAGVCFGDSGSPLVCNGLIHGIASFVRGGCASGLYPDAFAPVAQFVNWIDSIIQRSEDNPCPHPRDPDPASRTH
Method: as §1

[5] = biological target: T4, P. aeruginosa elastase (Pseudomonas aeruginosa, UniProt P14756); format: in vitro ADME; conditions: 37°C, in words; for stability against P. aeruginosa elastase: 1 µg peptide, 0.1 µg enzyme, 30 µl, 3 hours (legend: 4 h), SDS-PAGE Coomassie; for stability against P. aeruginosa elastase, extended digestion: different times up to 18 h, SDS-PAGE
T4 construct: purchased Calbiochem (La Jolla, USA)
T4 sequence (P14756 198-498): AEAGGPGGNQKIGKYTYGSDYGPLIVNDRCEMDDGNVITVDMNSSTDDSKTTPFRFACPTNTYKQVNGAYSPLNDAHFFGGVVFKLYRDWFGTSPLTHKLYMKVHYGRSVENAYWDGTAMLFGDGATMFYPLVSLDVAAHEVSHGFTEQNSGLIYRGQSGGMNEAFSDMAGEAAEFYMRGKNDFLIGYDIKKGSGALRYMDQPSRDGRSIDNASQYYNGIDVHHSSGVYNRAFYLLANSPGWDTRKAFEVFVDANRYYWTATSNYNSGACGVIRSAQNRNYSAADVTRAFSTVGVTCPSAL
Method: […] The materials were analyzed on 16.5% precast sodium dodecyl sulfate polyacrylamide (SDS-PAGE) Tris-Tricine gels (BioRad, Hercules, USA) and analyzed after staining with Coomassie Blue R-250 (Merck, Darmstadt, Germany).

[6] = test system: S. aureus; conditions: in words; cited from earlier work
Description: (§2) Considering the increasing resistance problems against conventional antibiotics, AMPs have recently emerged as potential therapeutic candidates in the above conditions. For example, the indolicidin-derived peptide omiganan is currently being evaluated in Phase III clinical trials for treatment of catheter-related infections. However, the use of AMPs in this context is challenging, as bacteria are able to excrete proteolytic enzymes, [38], and in the case of P. aeruginosa also AMP-scavenging exopolysaccharides, as a defense against AMPs.

[7] = test system: P. aeruginosa; conditions: in words; cited from earlier work
Description: as §2

[8] = test system: erythrocytes; conditions: cited from earlier work
Description: as §2

[9] = test system: Escherichia coli - ESBL - CTXM; format: cell-based
Method: (§3) In order to determine the minimal inhibitory concentration (MIC) for a given peptide and bacteria, we used a standardized dilution method according to NCSLA guidelines. In brief, fresh overnight colonies were suspended to a turbidity of 0.5 units and further diluted in Mueller-Hinton broth (MH) (Becton Dickinson). For determination of MIC, peptides were dissolved in water at concentration 10 times higher than the required range by serial dilutions from a stock solution. Ten µl of each concentration was added to each corresponding well of a 96-well microtiter plate (polypropylene, Costar Corp.) and 90 µl of bacteria (1×10^5) in MH medium added. The plate was incubated at 37°C for 16–18 h. MIC was considered as the lowest concentration of peptide where no visual growth of bacteria was detected. Additional MIC determinations presented in Table 2 were performed using cation-adjusted MH broth at Quotient Bioresearch Ltd., Fordham, United Kingdom.

[10] = test system: EMRSA3 Staphylococcus aureus (MRSA) – SSCmec type 1; format: cell-based; conditions: EMRSA3 – SSCmec type 1
Method: as §3

[11] = test system: Staphylococcus aureus - multi-drug-resistant clinical isolate; format: cell-based
Method: as §3

[12] = test system: Pseudomonas aeruginosa ATCC 27853 - antibiotic-susceptible type strain; format: cell-based
Method: as §3

[13] = test system: Escherichia coli - multi-drug resistant clinical isolate; format: cell-based
Method: as §3

[14] = test system: Staphylococcus aureus – methicillin-resistant clinical isolate; format: cell-based
Method: as §3

[15] = test system: Staphylococcus saprophyticus – antibiotic susceptible clinical isolate; format: cell-based
Method: as §3

[16] = test system: Staphylococcus epidermidis – antibiotic susceptible clinical isolate; format: cell-based
Method: as §3

[17] = test system: Escherichia coli - ESBL - TEM; format: cell-based
Method: as §3

[18] = test system: Staphylococcus aureus ATCC 29213 – antibiotic-susceptible type strain; format: cell-based
Method: as §3

[19] = test system: Pseudomonas aeruginosa - multi-drug resistant clinical isolate; format: cell-based
Method: as §3

[20] = test system: Streptococcus pyogenes – Macrolide (MLS) resistant clinical isolate; format: cell-based
Method: as §3

[21] = test system: Group G Streptococcus – macrolide-resistant clinical isolate; format: cell-based
Method: as §3

[22] = test system: Group G Streptococcus – antibiotic-susceptible clinical isolate; format: cell-based
Method: as §3

[23] = test system: Pseudomonas aeruginosa – Liverpool genotype LES 431; format: cell-based
Method: as §3

[24] = test system: Streptococcus pyogenes – ATCC 19615; format: cell-based
Method: as §3

[25] = test system: EMRSA1 Staphylococcus aureus (MRSA) – SSCmec type 3; format: cell-based; conditions: EMRSA1 – SSCmec type 3
Method: as §3

[26] = test system: Streptococcus pyogenes – Macrolide (M-type) resistance clinical isolate; format: cell-based
Method: as §3

[27] = test system: Escherichia coli ATCC 35218 - β-lactamase positive type strain; format: cell-based
Method: as §3

[28] = test system: EMRSA15 Staphylococcus aureus (MRSA) – SSCmec type 4; format: cell-based; conditions: EMRSA15 – SSCmec type 4
Method: as §3

[29] = test system: Escherichia coli - ESBL - SHV; format: cell-based
Method: as §3

[30] = test system: Staphylococcus aureus ATCC 43300 – methicillin-resistant type strain; format: cell-based
Method: as §3

[31] = test system: EMRSA16 Staphylococcus aureus (MRSA) – SSCmec type 2; format: cell-based; conditions: EMRSA16 – SSCmec type 2
Method: as §3

[32] = test system: Group C Streptococcus – antibiotic-susceptible clinical isolate; format: cell-based
Method: as §3

[33] = test system: Escherichia coli ATCC 25922 - antibiotic-susceptible type strain; format: cell-based
Method: as §3

[34] = test system: Group C Streptococcus – macrolide-resistant clinical isolate; format: cell-based
Method: as §3

[35] = test system: Staphylococcus haemolyticus – antibiotic susceptible clinical isolate; format: cell-based
Method: as §3

[36] = test system: Streptococcus pyogenes – antibiotic-susceptible clinical isolate; format: cell-based
Method: as §3

[37] = test system: Staphylococcus epidermidis– methicillin-resistant clinical isolate; format: cell-based
Method: as §3

[38] = test system: HT2001254 Staphylococcus aureus (MRSA) – PVL positive; format: cell-based
Method: as §3

[39] = test system: MU50 Staphylococcus aureus (MRSA) – VISA type strain; format: cell-based
Method: as §3

[40] = test system: Staphylococcus aureus - teicoplanin-intermediate clinical isolate; format: cell-based
Method: as §3

For CC[C@H](C)[C@H](NC(=O)[C@H](CCCCN)NC(=O)[C@H](CCC(=O)O)NC(=O)[C@H](CCCCN)NC(=O)[C@H](CO)NC(=O)[C@H](CCCCN)NC(=O)[C@H](CCCNC(=N)N)NC(=O)[C@H](Cc1ccccc1)NC(=O)[C@H](Cc1ccccc1)NC(=O)[C@H](CC(=O)O)NC(=O)CNC(=O)[C@H](CC(C)C)NC(=O)[C@@H](N)CC(C)C)C(=O)NCC(=O)N[C@@H](CCCCN)C(=O)N[C@@H](CCC(=O)O)C(=O)N[C@@H](Cc1ccccc1)C(=O)N[C@@H](CCCCN)C(=O)N[C@@H](CCCNC(=N)N)C(=O)N[C@H](C(=O)N[C@H](C(=O)N[C@@H](CCC(N)=O)C(=O)N[C@@H](CCCNC(=N)N)C(=O)N[C@H](C(=O)N[C@@H](CCCCN)C(=O)N[C@@H](CC(=O)O)C(=O)N[C@@H](Cc1ccccc1)C(=O)N[C@@H](CC(C)C)C(=O)N[C@@H](CCCNC(=N)N)C(=O)N[C@@H](CC(N)=O)C(=O)N[C@@H](CC(C)C)C(=O)N[C@H](C(=O)N1CCC[C@H]1C(=O)N[C@@H](CCCNC(=N)N)C(=O)N[C@H](C(=O)N[C@@H](CCC(=O)O)C(=O)N[C@@H](CO)C(=O)O)[C@@H](C)O)C(C)C)[C@@H](C)CC)C(C)C)[C@@H](C)CC [reference compound], the “hemolysis in human blood infected by bacteria” value [1] was “significant concomitant hemolysis”, the “stability against S. aureus aureolysin” value [2] was “extensively degraded” and the “stability against S. aureus V8 proteinase” value [3] was “extensively degraded”. The “stability against human neutrophil elastase” value [4] was “extensively degraded” and the “stability against P. aeruginosa elastase” value [5] was “extensively degraded”.

In the case of GRRPRPRPRPWWWW-NH2 [GRRPRPRPRPWWWW-NH2], the “stability against S. aureus aureolysin” value [2] is reported as “largely unaffected”, the “stability against S. aureus V8 proteinase” value [3] is reported as “largely unaffected” and the “stability against P. aeruginosa elastase” value [5] is reported as “largely unaffected”.

In the case of “ILRWPWWPWRRK-NH2 [ILRWPWWPWRRK-NH2, reference compound]”, the “stability against P. aeruginosa elastase, extended digestion” value [5] is reported as “degraded during extended digestion”.

For “QPTRRPRPGTGPGRRPRPRPRP [QPT22, PRELP-derived peptide of earlier work]”, the antimicrobial effects [6] is listed as “exert antimicrobial effects”, the antimicrobial effects [7] is listed as “exert antimicrobial effects” and the hemolytic activity [8] is listed as “no hemolytic activity”.

In the case of RRPRPRPRPWWWW-NH2 [RRPRPRPRPWWWW-NH2], the “hemolysis in human blood infected by bacteria” value [1] is reported as “no accompanying hemolysis”, the “stability against S. aureus aureolysin” value [2] is reported as “largely unaffected” and the “stability against S. aureus V8 proteinase” value [3] is reported as “largely unaffected”. For the same compound, the MIC [9] was 16 µg/mL, the MIC [10] was 16 µg/mL and the MIC [11] was 32 µg/mL. It also gave an MIC [12] of 64 µg/mL, an MIC [13] of 16 µg/mL and an MIC [14] of 32 µg/mL. For the same compound, the MIC [15] was 64 µg/mL, the MIC [16] was 8 µg/mL and the MIC [17] was 16 µg/mL. The MIC [18] was 16 µg/mL, the MIC [19] was 128 µg/mL and the MIC [20] was 16 µg/mL. It also gave an MIC [21] of 16 µg/mL, an MIC [22] of 32 µg/mL and an MIC [23] of 128 µg/mL. The MIC [24] was 16 µg/mL, the MIC [25] was 32 µg/mL and the MIC [26] was 16 µg/mL. The MIC [27] was 16 µg/mL, the MIC [28] was 16 µg/mL and the MIC [29] was 32 µg/mL. For the same compound, the MIC [30] was 16 µg/mL, the MIC [31] was 32 µg/mL and the MIC [32] was 8 µg/mL. The MIC [33] was 16 µg/mL, the MIC [34] was 8 µg/mL and the MIC [35] was 8 µg/mL. It also gave an MIC [36] of 32 µg/mL, an MIC [37] of 8 µg/mL and an MIC [38] of 32 µg/mL. For the same compound, the MIC [39] was 32 µg/mL, the MIC [40] was 32 µg/mL and the “stability against P. aeruginosa elastase” value [5] was “largely unaffected”. For the same compound, the “stability against P. aeruginosa elastase, extended digestion” value [5] was “maintained stability”.

Reference: PMC3029338, “Highly Selective End-Tagged Antimicrobial Peptides Derived from PRELP” (PLoS ONE, 2011)
